Experimental data as given in paper PMC10538376 (Journal of the American Chemical Society, 2023).

How the values were obtained:
[1] = tested on: methicillin-resistant S. aureus (MRSA); experiment: In vitro antimicrobial activity, MRSA; assay type: cell-based
[2] = tested on: VanA vancomycin-resistant E. faecium (VRE); experiment: In vitro antimicrobial activity, VanA VRE; assay type: cell-based; conditions: comparator named in value
[3] = tested on: methicillin-susceptible S. aureus (MSSA); experiment: In vitro antimicrobial activity, MSSA; assay type: cell-based
[4] = tested on: Ac2-L-Lys-D-Ala-D-Lac (33); experiment: Model ligand binding, ligand of vancomycin-resistant organisms
[5] = 30 vs CBP-vancomycin, 31 vs G3,CBP-vancomycin

CBP-tetrachlorovancomycin [Compound 30]
fold improvement of activity relative to 1 [1]: 50 fold | activity compared with the corresponding vancomycin derivative, in words [1, 5]: indistinguishable | antimicrobial activity against VanA VRE, result in words [2]: comparable to CBP-vancomycin | fold improvement of activity relative to 1 [3]: 50 fold | activity compared with the corresponding vancomycin derivative, in words [3, 5]: indistinguishable

vancomycin [reference compound]
antimicrobial activity against VanA VRE, result in words [2]: inactive

2e,6e-dichlorovancomycin [Compound 1]
Ka, binding to model ligand 33 [4]: < 470 M⁻¹ | fold less effective binding of 33 than of Ac2-L-Lys-D-Ala-D-Ala [4]: 1000 fold | antimicrobial activity against VanA VRE, result in words [2]: inactive
